Measured values as given in US20160136284A1, “GLIOMA TREATMENT” (priority 2012, published 2016).
Entries after “also recorded” stand apart in the source; their conditions may differ.

Columns and labels:
[1] = test system: SNB19 and UPAB glioma cells; experiment: MTT cytotoxicity assay in glioma cell lines; assay type: cell-based
Experimental: Cell lines were kindly provided by Geoffrey Pilkington from the Institute of Biomedical and Biomolecular Sciences at Portsmouth University, UK. The cell lines used in this study were SNB19 (P20-P45) and UPAB (P20-P45).
Briefly, SNB19 and UPAB glioma cells were plated at 1×10^4/well in a 24-well plate. Cells were treated 72 hours later with Carboplatin at the following concentrations: 0.06 mg, 0.12 mg, 0.18 mg, 0.24 mg, 0.3 mg, 0.36 mg, and 0.6 mg (TEVA, UK) for 24, 48, 72, or 96 hours. Each concentration was repeated 4 times. Carboplatin was diluted in phosphate buffered saline (PBS; Sigma Aldrich, UK) and added to 0.5 mL culture media. PBS was used as a negative control and Puromycin dihydrochloride (10 μg/mL; Sigma Aldrich, UK), which inhibits cell growth by preventing protein synthesis, was used as a positive control. Following the incubation period, culture media was changed. Then 50 μL Methylthiazolyl-tetrazolium bromide solution (MTT; Sigma Aldrich, UK; 5 mg/mL) was added to each well and further incubated for 3 hours at 37° C. in a humidified 5% CO2 atmosphere to allow MTT to form formazan crystals in metabolically active cells. Following this, media was removed, and the formazan crystals in each well were solubilized with 190 μL of isopropanol (Fisher Scientific, Loughborough, UK) acidified with hydrochloric acid (VWR, Leicestershire, UK). The cell lysate was transferred to a 96 well plate and the absorbance of each well was measured at 570 nm using a Multiskan Ascent plate reader (Thermo Electron Corporation, UK). Results are expressed as a percentage (%) of treated versus untreated cells.

[2] = Prolonged intracranial (brainstem) carboplatin infusions in primates (Strege et al.); assay type: in vivo
[3] = Glioma tissue concentration after high-dose intravenous delivery (Whittle et al.); assay type: in vivo
[4] = Carboplatin toxicity in rat brain after CED (clinical, H&E, GFAP, DiI); assay type: in vivo
Experimental: Male Wistar rats (Charles River, UK) were group-housed and allowed to acclimatise prior to experimental procedures. Rats weighing 225 to 275 g were anaesthetised with an intraperitoneal dose of medetomidine (Dormitor; 0.4 mg/kg; Pfizer Animal Health, Kent, UK) and ketamine (Ketaset; 100 mg/kg; Pfizer, UK) and placed in a stereotactic frame (Stoelting Co, Wood Dale, Ill. USA). A linear incision was made between the glabella and the occiput and the skull exposed. Burr holes with a diameter of approximately 2 mm were drilled 1.0 mm anterior and 2.5 mm lateral to the bregma and cannulae were inserted to a depth of 2.5 mm below the dura. All cannulae were pre-primed with either saline or carboplatin and the desired dose prior to insertion into the brain. Every attempt was made to ensure that no air bubbles were present in the infusion cannula. Infusions of 2.5 μl of carboplatin at specific concentrations (outlined in Table 1) were conducted at a rate of 5 μl/min. Following infusion completion, the cannula was left in-situ for 10 min before being withdrawn at a rate of 1 mm/min. The wound was then closed with 5.0 Vicryl (Ethicon, Gargrave, UK) a dose of intramuscular buprenorphine was administered (Vetergesic; 0.03 mg/kg; Alstoe Animal Health, York, UK) and the anaesthetic was reversed with an intraperitoneal dose of atipamezole hydrochloride (Antisedan; 5 mg/kg; Pfizer, UK). At predetermined time-points (see Table 1), animals were perfusion fixed with 100 mL of PBS followed by 100 mL of 4% paraformaldehyde (PFA; Fisher Scientific, UK) in PBS (pH 7.4). The brain was then removed from the skull and placed in 4% PFA for 48 hours and then cryoprotected in 30% sucrose (Melford Laboratories, Ipswich, UK) in PBS prior to sectioning.
Rat brains were cut into 35 μm thick coronal sections using a Leica CM1850 cryostat (Leica Microsystems, Wetzlar, Germany) at −20° C. For haematoxylin and eosin staining, fixed sections were mounted on gelatine-subbed slides. Sections were submerged in 4% PFA for 20 minutes, dehydrated and then stained with haematoxylin and eosin (Cell Path, Hemel Hempstead, UK) according to standard protocols. Following this, sections were coverslipped with Pertex mounting medium (Cell Path, UK) and allowed to dry in the fumehood overnight before imaging with a Leica CTR 5500 microscope (Leica Microsystems, Germany). Sections were assessed by light microscopy to ensure that the cannula track in each brain terminated in the corpus callosum.
For fluorescent immunohistochemistry, free-floating sections were washed with PBS for 5 min×3. Sections were then blocked in PBS plus 0.1% triton-x-100 (Sigma Aldrich, UK) containing 10% normal donkey serum (Sigma Aldrich, UK) for 1 hour at RT. Sections were then washed with PBS for 5 min. […]

[5] = up to 0.9 mg/ml, vs 0.9% saline

Compound: N.N.O=C([O-])C1(C(=O)[O-])CCC1.[Pt+2] [carboplatin]
- concentration above which increase in cell kill is negligible ([1]; 72 hour exposure): 0.24 mg/mL
- concentration above which increase in cell kill is negligible ([1]; 96 hour exposure): 0.18 mg/mL
- cell kill ([1]; 96 hour exposure, 0.18 mg/ml): greater than 90%
- lowest concentration likely to lead to significant toxicity ([2]; extrapolated from Strege et al, assuming patient weight of 70 kg): 0.22 mg/mL
- ratio of serum concentration, intravenous in humans vs intracranial in primates ([2]; in vivo, iv): more than 5 thousand
- peak glioma tissue concentration as share of IC50 (meta-analysis of chemosensitivity assays) [3]: 40%
- histological tissue toxicity (haematoxylin and eosin) ([4]; 0.03-0.9 mg/ml, up to 30 days): no histological evidence of tissue disruption; also recorded: No evidence of tissue toxicity
- clinical tolerability / toxicity ([4]; single CED infusions, concentrations of up to 0.9 mg/ml): well tolerated; also recorded: no clinical or histological evidence of toxicity
- gliosis in white matter (GFAP immunostaining) [4, 5]: minimal evidence of gliosis
- white matter tract integrity (DiI staining) [4, 5]: no loss of white matter tract integrity
